Counter-ions that a name gives are not always drawn. Like-named read-outs stand apart in the source and are kept apart here.
Columns and labels:
[1] = type: physicochemical
Experimental: The suspensions were filtered through 0.2 or 0.45 microm filters prior to HPLC analysis. Some filtrates were diluted with MeOH prior to the HPLC analysis.

[2] = MP470.HCl in T/C with or without Soluplus in SIF; type: physicochemical; details: Soluplus (12.3%) added to MP470.HCl in T/C, versus control without Soluplus; SIF 37° C., 1 mg/mL MP470 (total); FIG. 4
Experimental: A sample of the formulation was mixed with SIF solution pre-warmed at 37° C. to make a 1 mg/mL MP470 (total) mix.

solubility ([1]; Capryol 90, oil or lipid, thermodynamic from solid, solvent Capryol 90, room temperature, >24 hours, read-out: Solubility): 0.1 mg/mL
solubility ([1]; Cremophor EL, organic solvent or mixture, thermodynamic from solid, solvent Cremophor EL, room temperature, >24 hours, read-out: Solubility): 7 mg/mL
solubility ([1]; DMF, organic solvent or mixture, thermodynamic from solid, solvent DMF, room temperature, >24 hours, read-out: Solubility): 10 mg/mL
solubility ([1]; Labrafac CC, oil or lipid, thermodynamic from solid, solvent Labrafac CC, room temperature, >24 hours, read-out: Solubility): 0.05 mg/mL
solubility ([1]; Labrafil M1944CS, oil or lipid, thermodynamic from solid, solvent Labrafil M1944CS, room temperature, >24 hours, read-out: Solubility): 0.3 mg/mL
solubility ([1]; Lauroglycol 90, oil or lipid, thermodynamic from solid, solvent Lauroglycol 90, room temperature, >24 hours, read-out: Solubility): 0.06 mg/mL
solubility ([1]; Maisine 35-1, oil or lipid, thermodynamic from solid, solvent Maisine 35-1, room temperature, >24 hours, read-out: Solubility): 1.4 mg/mL
solubility ([1]; Miglyol 812N, oil or lipid, thermodynamic from solid, solvent Miglyol 812N, room temperature, >24 hours, read-out: Solubility): 0.03 mg/mL
solubility ([1]; Miglyol 829, oil or lipid, thermodynamic from solid, solvent Miglyol 829, room temperature, >24 hours, read-out: Solubility): 0.1 mg/mL
solubility ([1]; Miglyol 840, oil or lipid, thermodynamic from solid, solvent Miglyol 840, room temperature, >24 hours, read-out: Solubility): 0.04 mg/mL
solubility ([1]; Peceol, oil or lipid, thermodynamic from solid, solvent Peceol, room temperature, >24 hours, read-out: Solubility): 0.2 mg/mL
solubility ([1]; Solutol HS 15, aqueous with cosolvent or surfactant or cyclodextrin, thermodynamic from solid, solvent Solutol HS 15, estimated by diluting the mixture in water 1/100 and then assaying the dilution, read-out: Solubility): 6 mg/mL
solubility ([1]; TPGS, aqueous with cosolvent or surfactant or cyclodextrin, thermodynamic from solid, solvent TPGS, estimated by diluting the mixture in water 1/100 and then assaying the dilution, read-out: Solubility): 7 mg/mL
solubility ([1]; benzyl acetate, organic solvent or mixture, thermodynamic from solid, solvent Benzyl acetate, room temperature, >24 hours, read-out: Solubility): 0.4 mg/mL
solubility ([1]; benzyl alcohol, organic solvent or mixture, thermodynamic from solid, solvent Benzyl alcohol, room temperature, >24 hours, read-out: Solubility): 48 mg/mL
solubility ([1]; canola oil, oil or lipid, thermodynamic from solid, solvent Canola oil, room temperature, >24 hours, read-out: Solubility): 0.01 mg/mL
solubility ([1]; castor oil, oil or lipid, thermodynamic from solid, solvent Castor oil, room temperature, >24 hours, read-out: Solubility): 0.2 mg/mL
solubility ([1]; clove oil, oil or lipid, thermodynamic from solid, solvent Clove oil, room temperature, >24 hours, read-out: Solubility): 6.7 mg/mL
solubility ([1]; corn oil, oil or lipid, thermodynamic from solid, solvent Corn oil, room temperature, >24 hours, read-out: Solubility): 0.01 mg/mL
solubility ([1]; dichloromethane, organic solvent or mixture, thermodynamic from solid, solvent Dichloromethane, room temperature, >24 hours, read-out: Solubility): 0.4 mg/mL
solubility ([1]; ethyl acetate, organic solvent or mixture, thermodynamic from solid, solvent Ethyl acetate, room temperature, >24 hours, read-out: Solubility): 0.05 mg/mL
solubility ([1]; peanut oil, oil or lipid, thermodynamic from solid, solvent Peanut oil, room temperature, >24 hours, read-out: Solubility): 0.01 mg/mL
solubility ([1]; sesame oil, oil or lipid, thermodynamic from solid, solvent Sesame oil, room temperature, >24 hours, read-out: Solubility): 0.03 mg/mL
solubility ([1]; solvent Acetic acid, room temperature, >24 hours, HCl): 3.0 mg/mL
solubility ([1]; solvent Acetone, room temperature, >24 hours, HCl): 0.2 mg/mL
solubility ([1]; solvent DMA, room temperature, >24 hours, HCl): 13 mg/mL
solubility ([1]; solvent DMSO, room temperature, >24 hours, HCl): 18 mg/mL
solubility ([1]; solvent Glycerin, room temperature, >24 hours, HCl): 4 mg/mL
solubility ([1]; solvent Labrasol, room temperature, >24 hours, HCl): 3 mg/mL
solubility ([1]; solvent Methanol, room temperature, >24 hours, HCl): 3 mg/mL
solubility ([1]; solvent NMP, room temperature, >24 hours, HCl): 40 to 80 mg/mL
solubility ([1]; solvent PEG400, room temperature, >24 hours, HCl): 2 mg/mL
solubility ([1]; solvent Phosal 50 PG, room temperature, >24 hours, HCl): 15 mg/mL
solubility ([1]; solvent Propylene glycol, room temperature, >24 hours, HCl): 4 mg/mL
solubility ([1]; solvent Triacetin, room temperature, >24 hours, HCl): 0.8 mg/mL
solubility ([1]; solvent Tween 20, room temperature, >24 hours, HCl): 17 mg/mL
solubility ([1]; solvent Tween 80, room temperature, >24 hours, HCl): 4.5 mg/mL
solubility ([1]; tocopherol, oil or lipid, thermodynamic from solid, solvent Tocopherol, room temperature, >24 hours, read-out: Solubility): 0.8 mg/mL
MP470 solubility enhancement [2]: ~10 fold
Structure (SMILES): S=C(NCc1ccc2c(c1)OCO2)N1CCN(c2ncnc3c2oc2ccccc23)CC1 [MP470.HCl, amuvatinib HCl]

From patent US20170360791A1, “PHARMACEUTICAL COMPOSITIONS FOR INCREASING THE BIOAVAILABILITY OF POORLY SOLUBLE DRUGS” (ASTEX PHARMACEUTICALS, INC., priority 2014, published 2017)
